Test results: ChEMBL document CHEMBL3217737, “Discovery of a highly selective FLT3 kinase inhibitor from phenotypic cell viability profiling” (Medchemcomm, 2013)
Active and inactive are the calls of the source. The calls are words filed in the database; no cut-off is given here.

Experiments:
[1] = molecular target: Proto-oncogene tyrosine-protein kinase Src (Homo sapiens) (UniProt P12931); experiment: Inhibition of c-Src (unknown origin) at 10 uM assessed as residual enzyme activity
[2] = molecular target: CDK1/Cyclin A (Homo sapiens) (UniProt P06493+P20248); experiment: Inhibition of CDK1/Cyclin A (unknown origin) at 10 uM assessed as residual enzyme activity; assay type: protein-complex assay
[3] = molecular target: Aurora kinase A (Homo sapiens) (UniProt O14965); experiment: Inhibition of Aurora A (unknown origin) at 10 uM assessed as residual enzyme activity
[4] = molecular target: Serine/threonine-protein kinase A-Raf (Homo sapiens) (UniProt P10398); experiment: Inhibition of ARAF (unknown origin) at 10 uM assessed as residual enzyme activity
[5] = molecular target: Mitogen-activated protein kinase kinase kinase 5 (Homo sapiens) (UniProt Q99683); experiment: Inhibition of ASK1 (unknown origin) at 10 uM assessed as residual enzyme activity
[6] = molecular target: RAC-alpha serine/threonine-protein kinase (Homo sapiens) (UniProt P31749); experiment: Inhibition of AKT1 (unknown origin) at 10 uM assessed as residual enzyme activity
[7] = molecular target: Tyrosine-protein kinase ABL1 (Homo sapiens) (UniProt P00519); experiment: Inhibition of ABL1 (unknown origin) at 10 uM assessed as residual enzyme activity
Tyrosine-protein kinase ABL1 (Homo sapiens), sequence (P00519 whole entry): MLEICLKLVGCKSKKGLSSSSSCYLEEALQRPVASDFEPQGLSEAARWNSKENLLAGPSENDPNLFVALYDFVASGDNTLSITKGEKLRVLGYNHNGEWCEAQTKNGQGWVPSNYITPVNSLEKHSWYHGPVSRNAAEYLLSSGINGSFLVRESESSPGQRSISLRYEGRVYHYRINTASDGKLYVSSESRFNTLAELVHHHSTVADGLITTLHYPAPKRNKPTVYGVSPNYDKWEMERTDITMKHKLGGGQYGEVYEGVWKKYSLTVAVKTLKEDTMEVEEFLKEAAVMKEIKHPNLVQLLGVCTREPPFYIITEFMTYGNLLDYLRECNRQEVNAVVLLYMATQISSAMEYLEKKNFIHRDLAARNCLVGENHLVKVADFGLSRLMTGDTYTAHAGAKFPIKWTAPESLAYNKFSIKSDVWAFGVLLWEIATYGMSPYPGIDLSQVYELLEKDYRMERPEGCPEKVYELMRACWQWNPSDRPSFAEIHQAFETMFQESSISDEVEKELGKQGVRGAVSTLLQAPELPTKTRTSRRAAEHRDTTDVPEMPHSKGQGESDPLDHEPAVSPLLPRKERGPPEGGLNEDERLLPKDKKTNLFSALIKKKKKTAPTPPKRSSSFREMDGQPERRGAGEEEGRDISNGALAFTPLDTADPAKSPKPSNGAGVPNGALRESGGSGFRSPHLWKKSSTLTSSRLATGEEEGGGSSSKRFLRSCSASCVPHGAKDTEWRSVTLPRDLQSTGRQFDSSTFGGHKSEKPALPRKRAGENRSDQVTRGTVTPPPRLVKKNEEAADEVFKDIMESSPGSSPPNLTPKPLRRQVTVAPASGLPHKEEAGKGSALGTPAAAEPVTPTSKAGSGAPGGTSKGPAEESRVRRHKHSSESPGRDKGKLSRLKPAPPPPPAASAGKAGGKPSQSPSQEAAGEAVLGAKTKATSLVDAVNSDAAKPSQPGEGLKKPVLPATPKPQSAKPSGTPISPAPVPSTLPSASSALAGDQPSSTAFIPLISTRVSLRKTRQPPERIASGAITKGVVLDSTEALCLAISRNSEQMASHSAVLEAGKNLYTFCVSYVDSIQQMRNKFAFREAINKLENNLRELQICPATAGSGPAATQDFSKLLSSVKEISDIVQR

[8] = tested on: HL-60; experiment: Cytotoxicity against human HL60 cells assessed as cell growth inhibition after 24 hrs by WST1 assay; assay type: functional, cell-based
[9] = tested on: HL-60; experiment: Inhibition of STAT5 phosphorylation in human HL60 cells at 0.1 to 10 uM after 12 hrs by Western blot method; assay type: cell-based
[10] = tested on: MV4-11; experiment: Induction of apoptosis in human MV4-11 cells assessed as increase in cleaved PARP level at 0.1 to 10 uM after 12 hrs by Western blot method; assay type: functional, cell-based
[11] = tested on: MCF7; experiment: Cytotoxicity against human MCF7 cells assessed as cell viability at 1 uM after 24 hrs by WST1 assay; assay type: functional; details: MCF7, 24 h, read-out: Activity
[12] = molecular target: Tyrosine-protein kinase JAK1 (Homo sapiens) (UniProt P23458); experiment: Inhibition of JAK1 (unknown origin) at 10 uM assessed as residual enzyme activity
Tyrosine-protein kinase JAK1 (Homo sapiens), sequence (P23458 whole entry): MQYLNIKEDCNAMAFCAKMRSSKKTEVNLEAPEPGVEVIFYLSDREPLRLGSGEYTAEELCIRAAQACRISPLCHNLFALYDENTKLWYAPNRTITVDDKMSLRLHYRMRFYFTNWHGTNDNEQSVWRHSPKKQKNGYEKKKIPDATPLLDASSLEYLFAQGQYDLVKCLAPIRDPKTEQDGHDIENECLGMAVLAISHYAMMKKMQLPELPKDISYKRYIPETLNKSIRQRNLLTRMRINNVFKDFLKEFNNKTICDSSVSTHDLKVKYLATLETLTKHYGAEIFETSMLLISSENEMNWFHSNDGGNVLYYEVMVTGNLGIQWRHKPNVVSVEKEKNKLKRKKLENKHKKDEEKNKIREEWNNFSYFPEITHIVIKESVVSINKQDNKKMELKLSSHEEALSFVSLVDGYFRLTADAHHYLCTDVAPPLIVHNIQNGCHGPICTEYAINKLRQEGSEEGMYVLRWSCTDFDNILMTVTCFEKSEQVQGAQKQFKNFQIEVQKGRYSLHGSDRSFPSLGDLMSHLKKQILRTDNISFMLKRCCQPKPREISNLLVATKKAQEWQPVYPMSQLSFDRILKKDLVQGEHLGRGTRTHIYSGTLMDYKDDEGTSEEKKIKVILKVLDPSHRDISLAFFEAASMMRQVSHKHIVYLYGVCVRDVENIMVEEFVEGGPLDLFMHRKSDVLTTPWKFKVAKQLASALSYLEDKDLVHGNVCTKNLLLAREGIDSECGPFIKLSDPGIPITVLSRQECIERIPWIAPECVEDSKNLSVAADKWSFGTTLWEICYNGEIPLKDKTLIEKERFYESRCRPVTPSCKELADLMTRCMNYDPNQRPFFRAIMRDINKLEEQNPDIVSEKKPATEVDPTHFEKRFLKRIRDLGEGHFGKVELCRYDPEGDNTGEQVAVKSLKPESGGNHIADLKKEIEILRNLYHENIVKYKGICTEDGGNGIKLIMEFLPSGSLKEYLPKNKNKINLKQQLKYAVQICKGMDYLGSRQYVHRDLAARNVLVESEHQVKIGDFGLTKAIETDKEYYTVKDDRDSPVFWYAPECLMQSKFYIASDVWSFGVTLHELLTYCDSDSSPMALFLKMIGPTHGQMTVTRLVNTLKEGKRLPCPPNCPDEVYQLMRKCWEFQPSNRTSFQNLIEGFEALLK

[13] = molecular target: Fibroblast growth factor receptor 1 (Homo sapiens) (UniProt P11362); experiment: Inhibition of FGFR1 (unknown origin) at 10 uM assessed as residual enzyme activity
[14] = molecular target: Leukocyte tyrosine kinase receptor (Homo sapiens) (UniProt P29376); experiment: Inhibition of LTK (unknown origin) at 10 uM assessed as residual enzyme activity
[15] = molecular target: Vascular endothelial growth factor receptor 1 (Homo sapiens) (UniProt P17948); experiment: Inhibition of VEGFR1 (unknown origin) at 10 uM assessed as residual enzyme activity
Vascular endothelial growth factor receptor 1 (Homo sapiens), sequence (P17948 whole entry): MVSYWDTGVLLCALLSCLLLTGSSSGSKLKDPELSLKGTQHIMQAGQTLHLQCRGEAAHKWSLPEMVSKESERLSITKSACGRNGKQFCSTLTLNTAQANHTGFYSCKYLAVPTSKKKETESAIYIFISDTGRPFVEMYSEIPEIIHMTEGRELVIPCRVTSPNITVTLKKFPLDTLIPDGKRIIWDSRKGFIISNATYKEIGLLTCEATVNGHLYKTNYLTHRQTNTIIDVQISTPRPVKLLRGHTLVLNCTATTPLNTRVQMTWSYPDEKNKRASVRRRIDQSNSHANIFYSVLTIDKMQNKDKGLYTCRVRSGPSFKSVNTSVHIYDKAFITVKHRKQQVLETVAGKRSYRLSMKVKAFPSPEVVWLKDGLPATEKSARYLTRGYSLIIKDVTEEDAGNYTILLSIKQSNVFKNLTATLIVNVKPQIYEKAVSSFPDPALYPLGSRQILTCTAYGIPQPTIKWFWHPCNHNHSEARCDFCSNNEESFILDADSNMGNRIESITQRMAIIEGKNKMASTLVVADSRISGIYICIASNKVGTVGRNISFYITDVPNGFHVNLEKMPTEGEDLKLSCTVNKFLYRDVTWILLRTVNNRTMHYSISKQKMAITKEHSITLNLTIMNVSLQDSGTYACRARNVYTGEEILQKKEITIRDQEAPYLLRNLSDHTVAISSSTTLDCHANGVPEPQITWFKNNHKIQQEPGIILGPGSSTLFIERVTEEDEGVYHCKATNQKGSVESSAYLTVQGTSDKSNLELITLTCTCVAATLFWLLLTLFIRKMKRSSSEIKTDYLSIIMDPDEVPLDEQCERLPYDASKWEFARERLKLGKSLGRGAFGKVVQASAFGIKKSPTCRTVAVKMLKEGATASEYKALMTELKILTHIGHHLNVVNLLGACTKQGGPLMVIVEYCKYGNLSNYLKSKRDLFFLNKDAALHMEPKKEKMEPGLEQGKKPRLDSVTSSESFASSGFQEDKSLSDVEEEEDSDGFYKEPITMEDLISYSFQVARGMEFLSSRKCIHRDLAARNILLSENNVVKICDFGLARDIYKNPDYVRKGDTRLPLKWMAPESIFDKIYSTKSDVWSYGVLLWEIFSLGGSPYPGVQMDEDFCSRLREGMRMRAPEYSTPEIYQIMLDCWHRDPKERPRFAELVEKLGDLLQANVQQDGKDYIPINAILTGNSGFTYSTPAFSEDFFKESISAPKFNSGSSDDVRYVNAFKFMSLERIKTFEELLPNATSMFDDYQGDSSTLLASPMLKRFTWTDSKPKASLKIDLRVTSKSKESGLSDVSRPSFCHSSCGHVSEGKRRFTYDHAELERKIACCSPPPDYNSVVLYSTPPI

[16] = species on record: Homo sapiens; experiment: Inhibition of PKA (unknown origin) at 10 uM assessed as residual enzyme activity
[17] = molecular target: Serine/threonine-protein kinase PAK 1 (Homo sapiens) (UniProt Q13153); experiment: Inhibition of PAK1 (unknown origin) at 10 uM assessed as residual enzyme activity
[18] = molecular target: Dual specificity mitogen-activated protein kinase kinase 1 (Homo sapiens) (UniProt Q02750); experiment: Inhibition of MEK1 (unknown origin) at 10 uM assessed as residual enzyme activity
Dual specificity mitogen-activated protein kinase kinase 1 (Homo sapiens), sequence (Q02750 whole entry): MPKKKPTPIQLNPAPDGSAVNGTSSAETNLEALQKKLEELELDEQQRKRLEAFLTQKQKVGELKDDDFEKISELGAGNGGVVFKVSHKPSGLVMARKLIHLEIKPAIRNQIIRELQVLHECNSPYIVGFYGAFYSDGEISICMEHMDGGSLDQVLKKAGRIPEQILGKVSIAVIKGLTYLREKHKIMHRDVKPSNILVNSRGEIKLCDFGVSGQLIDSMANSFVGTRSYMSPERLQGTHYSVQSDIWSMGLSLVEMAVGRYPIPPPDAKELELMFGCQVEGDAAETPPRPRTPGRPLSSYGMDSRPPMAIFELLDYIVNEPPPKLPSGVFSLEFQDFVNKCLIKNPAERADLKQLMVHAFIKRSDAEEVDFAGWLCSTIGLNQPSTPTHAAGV

[19] = molecular target: Focal adhesion kinase 1 (Homo sapiens) (UniProt Q05397); experiment: Inhibition of FAK (unknown origin) at 10 uM assessed as residual enzyme activity
Focal adhesion kinase 1 (Homo sapiens), sequence (Q05397 2-1052 limits assumed): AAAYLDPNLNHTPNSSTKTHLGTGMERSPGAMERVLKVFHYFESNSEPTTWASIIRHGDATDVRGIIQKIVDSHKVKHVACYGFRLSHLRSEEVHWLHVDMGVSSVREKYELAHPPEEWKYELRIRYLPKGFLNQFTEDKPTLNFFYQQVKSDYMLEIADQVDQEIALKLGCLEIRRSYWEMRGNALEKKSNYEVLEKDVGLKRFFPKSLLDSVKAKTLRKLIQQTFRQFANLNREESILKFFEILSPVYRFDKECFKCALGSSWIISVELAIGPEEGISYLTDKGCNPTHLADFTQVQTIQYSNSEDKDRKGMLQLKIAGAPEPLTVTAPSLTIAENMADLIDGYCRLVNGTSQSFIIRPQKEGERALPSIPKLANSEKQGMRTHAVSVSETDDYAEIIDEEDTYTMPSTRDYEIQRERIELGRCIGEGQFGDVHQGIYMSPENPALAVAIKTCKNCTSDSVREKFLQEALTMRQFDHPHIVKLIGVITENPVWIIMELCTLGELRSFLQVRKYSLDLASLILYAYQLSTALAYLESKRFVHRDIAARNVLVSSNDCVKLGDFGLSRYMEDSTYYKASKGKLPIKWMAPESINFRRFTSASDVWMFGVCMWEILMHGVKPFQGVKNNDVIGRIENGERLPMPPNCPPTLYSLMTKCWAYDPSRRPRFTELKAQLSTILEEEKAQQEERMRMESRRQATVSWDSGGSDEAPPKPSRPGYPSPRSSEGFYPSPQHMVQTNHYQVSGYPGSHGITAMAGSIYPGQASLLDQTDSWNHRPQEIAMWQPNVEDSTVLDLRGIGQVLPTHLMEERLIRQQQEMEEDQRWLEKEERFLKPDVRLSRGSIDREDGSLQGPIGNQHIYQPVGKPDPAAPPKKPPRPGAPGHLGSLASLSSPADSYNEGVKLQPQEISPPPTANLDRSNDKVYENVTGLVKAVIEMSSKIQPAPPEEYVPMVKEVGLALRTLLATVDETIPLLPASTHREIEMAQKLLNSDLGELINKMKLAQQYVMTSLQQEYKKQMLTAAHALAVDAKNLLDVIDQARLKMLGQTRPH

[20] = molecular target: Epidermal growth factor receptor (Homo sapiens) (UniProt P00533); experiment: Inhibition of EGFR (unknown origin) at 10 uM assessed as residual enzyme activity

Activity [1]: 78.7%
Activity [2]: 97.4%
Activity [3]: 87.7%
Activity [4]: 77%
Activity [5]: 97.8%
Activity [6]: 93.6%
Activity [7]: 88.9%
Activity [12]: 103%
Activity [13]: 90.1%
Activity [14]: 92.9%
Activity [15]: 90%
Activity [16]: 93%
Activity [17]: 98.9%
Activity [18]: 102%
Activity [19]: 96.8%
Activity [20]: 91.2%
SMILES: COc1ccc(-c2n[nH]c3ncc(-c4ccc(Cl)cc4N)cc23)cc1
growth inhibition (GI) [8]: inactive
inhibition [9]: inactive
Activity [10]: Dose-dependent effect
viability at 1 µM [11]: 86%
